Results reported in publication PMC3605638 (The Journal of Biological Chemistry, 2013).

Target: T1, D. discoideum class I RNR (NrdA + NrdB) (Dictyostelium discoideum, UniProt Q54Q71)
T1 sequence (Q54Q71 1-870): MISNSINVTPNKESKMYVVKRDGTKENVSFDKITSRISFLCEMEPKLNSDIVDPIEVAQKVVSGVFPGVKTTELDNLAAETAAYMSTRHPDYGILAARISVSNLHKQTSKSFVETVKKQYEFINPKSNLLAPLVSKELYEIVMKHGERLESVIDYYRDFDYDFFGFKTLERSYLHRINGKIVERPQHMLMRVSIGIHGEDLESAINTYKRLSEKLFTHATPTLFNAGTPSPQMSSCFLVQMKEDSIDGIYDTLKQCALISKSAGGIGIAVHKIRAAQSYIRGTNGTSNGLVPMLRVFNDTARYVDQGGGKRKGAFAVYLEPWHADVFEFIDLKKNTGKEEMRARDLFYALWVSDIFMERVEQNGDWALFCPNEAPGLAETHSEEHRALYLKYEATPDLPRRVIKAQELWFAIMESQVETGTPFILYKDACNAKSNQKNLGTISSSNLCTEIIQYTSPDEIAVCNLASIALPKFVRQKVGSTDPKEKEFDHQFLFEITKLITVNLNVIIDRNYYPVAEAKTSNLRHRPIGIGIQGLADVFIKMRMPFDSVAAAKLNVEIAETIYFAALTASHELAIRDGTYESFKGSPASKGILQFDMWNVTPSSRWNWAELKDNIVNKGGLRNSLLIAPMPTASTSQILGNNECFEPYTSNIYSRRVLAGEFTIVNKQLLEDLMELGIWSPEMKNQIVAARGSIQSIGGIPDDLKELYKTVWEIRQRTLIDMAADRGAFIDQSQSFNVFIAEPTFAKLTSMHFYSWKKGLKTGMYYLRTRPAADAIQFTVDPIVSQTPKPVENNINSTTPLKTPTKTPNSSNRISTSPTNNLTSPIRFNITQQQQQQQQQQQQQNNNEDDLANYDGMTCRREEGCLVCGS
T1 sequence (P42521 1-338 partner): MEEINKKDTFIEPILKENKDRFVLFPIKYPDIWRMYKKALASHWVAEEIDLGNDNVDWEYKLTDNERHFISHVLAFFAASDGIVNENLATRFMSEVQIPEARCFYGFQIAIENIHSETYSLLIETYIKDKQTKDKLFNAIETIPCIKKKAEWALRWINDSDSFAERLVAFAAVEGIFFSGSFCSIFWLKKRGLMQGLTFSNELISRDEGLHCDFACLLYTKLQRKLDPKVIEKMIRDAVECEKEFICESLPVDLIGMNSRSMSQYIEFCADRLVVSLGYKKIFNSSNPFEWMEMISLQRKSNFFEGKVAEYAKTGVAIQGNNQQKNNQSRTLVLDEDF
Assay: radiolabelled GDP reduction assay
Assay type: biochemical
Conditions: dTTP as effector; 0.7 mM [14C]GDP; labelled compound; pH 7.5, 25 °C

Nc1nc2c(ncn2[C@@H]2O[C@H](COP(=O)(O)OP(=O)(O)O)[C@@H](O)[C@H]2O)c(=O)[nH]1 [GDP]
radiolabelled GDP reduction assay: characterized in vitro with CDP or GDP as substrate
